Assays:
HSV-1 = HSV-1 complete replication cycle assay, supernatants used to infect fresh BHK cells; assay type: cell-based, herpes simplex virus 1
Experimental: To not only analyze the virus entry and early phase of virus replication of infection but also later phases of viral replication, the test assay was adjusted accordingly. BHK cells were incubated with test compounds and subsequently infected with HSV-1. Two days after infection supernatants were collected, centrifuged to remove detached cells and used to infect BHK cells. After two additional days infected cells were quantified using the Ensight system.
Two days after infection supernatants were collected, centrifuged to remove detached cells and used to infect BHK cells. After two additional days infected cells were quantified using the PerkinElmer Ensight system. The mean of infected cells from six independent wells was calculated. Error bars show the standard deviation.
(§1) However, Aciclovir, the standard therapy for HSV-1, targets viral DNA replication before the late phase of virus replication cycle. […] Two days after infection supernatants were collected, centrifuged to remove detached cells and used to infect BHK cells. After two addition days infected cells were quantified.
as §1

[1] = test system: GFP-encoding wildtype HSV-1 virus; assay: HSV-1 infection assay, GFP-expressing infected cells counted directly; assay type: cell-based, herpes simplex virus 1; conditions: single anthocyanins, BHK cells
Experimental: BHK cells were incubated with decreasing concentration of the solubilized test compounds for approx. 1 h. All concentrations were analyzed by six independent replicates on a black 96 well plate (PerkinElmer). Cells were infected with GFP-encoding wildtype HSV-1 virus and incubated for two days. Two days after infection, HSV-1-infected cells and GFP expressing cells were directly counted using the PerkinElmer Ensight system with optical cell culture plates. The instrument was controlled by manual counting.
The cells were subsequently infected with GFP-encoding HSV at a multiplicity of infection of 2.5, and infected GFP-expressing cells were counted one day after infection using the PerkinElmer Ensight system. […] Thus, the sugar is not required as potential co-factor for drug uptake.

| Structure (SMILES) | reduction of infected cells (HSV-1; 0.5 μg/ml Aciclovir alone) | reduction of viral infectivity (HSV-1; 2 μg/ml Aciclovir alone) | inhibition of HSV-1 (viral infectivity) [1] |
| --- | --- | --- | --- |
| Nc1nc2c(ncn2COCCO)c(=O)[nH]1 [Aciclovir, 9-(2-hydroxyethoxymethyl)guanine] | two | two |  |
| OC[C@H]1O[C@@H](Oc2cc3c(O)cc(O)cc3[o+]c2-c2cc(O)c(O)c(O)c2)[C@H](O)[C@@H](O)[C@H]1O [D3Gal, Delphinidin 3-galactoside] |  |  | Neither C3G nor D3Gal or Pet3G inhibited HSV-1 |
| COc1cc(-c2[o+]c3cc(O)cc(O)c3cc2O[C@@H]2O[C@H](CO)[C@@H](O)[C@H](O)[C@H]2O)cc(O)c1O [Pet3G, Petunidin 3-glucoside] |  |  | Neither C3G nor D3Gal or Pet3G inhibited HSV-1 |
| OC[C@H]1O[C@@H](Oc2cc3c(O)cc(O)cc3[o+]c2-c2ccc(O)c(O)c2)[C@H](O)[C@@H](O)[C@@H]1O [C3G, Cyanidin 3-glucoside] |  |  | Neither C3G nor D3Gal or Pet3G inhibited HSV-1 |

Reference: patent US20220175720A1, “COMBINED P[…] ANTHOCYANIN COMPOSITION AND AN ANTIVIRAL AGENT” (priority 2019, published 2022)
